Data: PubChem BioAssay AID248 (DTP/NCI, 2004)
Inconclusive results and toxic doses are left out. Rule as the data show it: active = T/C of 150% or more; inactive = T/C below 125%.

Test system: L1210 leukemia ip in BDF1 mice, survival T/C
Experiment: NCI In Vivo Anticancer Drug Screen. Data for tumor model L1210 Leukemia (intraperitoneal) in B6D2F1 (BDF1) mice
Details: endpoint: mean survival time, higher = longer survival
Method in brief: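 Antitumor effect is assessed in tumor-bearing animals. Survival in the compound arm is compared with a vehicle-dosed control arm and expressed as their quotient.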

[1] = dose: 100.0 mg/kg/injection, schedule: Q04DX003 (ip), vehicle: Klucel (hydroxypropylcellulose) (HPC)
[2] = dose: 200.0 mg/kg/injection, schedule: Q04DX003 (ip), vehicle: Klucel (hydroxypropylcellulose) (HPC)
[3] = dose: 400.0 mg/kg/injection, schedule: Q04DX003 (ip), vehicle: Klucel (hydroxypropylcellulose) (HPC)
[4] = dose: 100.0 mg/kg/injection, schedule: Q01DX001 (ip), vehicle: saline with Tween-80
[5] = dose: 100.0 mg/kg/injection, schedule: Q04DX002 (ip), vehicle: Klucel (hydroxypropylcellulose) (HPC)
[6] = dose: 200.0 mg/kg/injection, schedule: Q04DX002 (ip), vehicle: Klucel (hydroxypropylcellulose) (HPC)
[7] = dose: 400.0 mg/kg/injection, schedule: Q04DX002 (ip), vehicle: Klucel (hydroxypropylcellulose) (HPC)
[8] = dose: 100.0 mg/kg/injection, schedule: Q01DX009 (ip), vehicle: Klucel (hydroxypropylcellulose) (HPC)
[9] = dose: 200.0 mg/kg/injection, schedule: Q01DX009 (ip), vehicle: Klucel (hydroxypropylcellulose) (HPC)
[10] = dose: 400.0 mg/kg/injection, schedule: Q01DX009 (ip), vehicle: Klucel (hydroxypropylcellulose) (HPC)
[11] = dose: 100.0 mg/kg/injection, schedule: Q04DX003 (ip), vehicle: other
[12] = dose: 200.0 mg/kg/injection, schedule: Q04DX003 (ip), vehicle: other
[13] = dose: 50.0 mg/kg/injection, schedule: Q01DX009 (ip), vehicle: Klucel (hydroxypropylcellulose) (HPC)

Measured: T/C

CCCCC(=O)C1CN(C(C)(C)C)C1
inactive: dose: 5.0 mg/kg/injection, schedule: Q01DX001 (ip), vehicle: saline 102 % of control | dose: 5.0 mg/kg/injection, schedule: Q01DX009 (ip), vehicle: saline 104 % of control | dose: 10.0 mg/kg/injection, schedule: Q01DX001 (ip), vehicle: saline 97 % of control | dose: 10.0 mg/kg/injection, schedule: Q01DX009 (ip), vehicle: saline 111 % of control | dose: 20.0 mg/kg/injection, schedule: Q01DX001 (ip), vehicle: saline 102 % of control | dose: 20.0 mg/kg/injection, schedule: Q01DX009 (ip), vehicle: saline 97 % of control

Cc1cccc(NC(=O)Cc2ccccc2)c1C
inactive: dose: 100.0 mg/kg/injection, schedule: Q04DX002 (ip), vehicle: saline 99 % of control | dose: 200.0 mg/kg/injection, schedule: Q04DX002 (ip), vehicle: saline 105 % of control | dose: 400.0 mg/kg/injection, schedule: Q04DX002 (ip), vehicle: saline 101 % of control

CC(Cl)C(=O)OC(C)(C)Cl (stereo unspecified)
inactive: dose: 75.0 mg/kg/injection, schedule: Q01DX001 (ip), vehicle: carboxymethylcellulose (CMC) 104 % of control | dose: 150.0 mg/kg/injection, schedule: Q01DX001 (ip), vehicle: carboxymethylcellulose (CMC) 107 % of control

O=C1OC(c2ccccc2)(c2cccc3ccccc23)CC1c1ccccc1 (stereo unspecified)
inactive: dose: 100.0 mg/kg/injection, schedule: Q01DX001 (ip), vehicle: saline 98 % of control | dose: 200.0 mg/kg/injection, schedule: Q01DX001 (ip), vehicle: saline 98 % of control | dose: 400.0 mg/kg/injection, schedule: Q01DX001 (ip), vehicle: saline 89 % of control

O=C(O)COc1ccc(Cl)cc1C(=O)O
inactive: [1] 96 % of control | [2] 104 % of control | [3] 101 % of control

OC(CCl)COc1ccccc1 (stereo unspecified)
inactive: dose: 100.0 mg/kg/injection, schedule: Q01DX009 (sc), vehicle: olive oil, sesame oil, peanut oil 91 % of control | dose: 100.0 mg/kg/injection, schedule: Q04DX002 (sc), vehicle: olive oil, sesame oil, peanut oil 101 % of control | dose: 200.0 mg/kg/injection, schedule: Q01DX009 (sc), vehicle: olive oil, sesame oil, peanut oil 105 % of control | dose: 200.0 mg/kg/injection, schedule: Q04DX002 (sc), vehicle: olive oil, sesame oil, peanut oil 104 % of control | dose: 400.0 mg/kg/injection, schedule: Q01DX009 (sc), vehicle: olive oil, sesame oil, peanut oil 94 % of control | dose: 400.0 mg/kg/injection, schedule: Q04DX002 (sc), vehicle: olive oil, sesame oil, peanut oil 96 % of control

CCC(C)N=Cc1ccccc1O.CCC(C)N=Cc1ccccc1O.[Cu] (stereo unspecified)
inactive: dose: 9.5 mg/kg/injection, schedule: Q01DX001 (ip), vehicle: other 100 % of control | dose: 19.0 mg/kg/injection, schedule: Q01DX001 (ip), vehicle: other 107 % of control | dose: 38.0 mg/kg/injection, schedule: Q01DX001 (ip), vehicle: other 100 % of control

c1ccc(CCCCCCCCCCc2ccccc2)cc1
inactive: [4] 91 % of control | dose: 200.0 mg/kg/injection, schedule: Q01DX001 (ip), vehicle: saline with Tween-80 95 % of control | dose: 400.0 mg/kg/injection, schedule: Q01DX001 (ip), vehicle: saline with Tween-80 98 % of control

C/C(=N\Sc1ccccc1)c1ccccc1O
inactive: dose: 100.0 mg/kg/injection, schedule: Q04DX002 (ip), vehicle: other 102 % of control | dose: 200.0 mg/kg/injection, schedule: Q04DX002 (ip), vehicle: other 88 % of control

CCCCNC(=O)Nc1ccc(Cl)cc1
inactive: dose: 25.0 mg/kg/injection, schedule: Q01DX001 (ip), vehicle: saline with Tween-80 100 % of control | dose: 50.0 mg/kg/injection, schedule: Q01DX001 (ip), vehicle: saline with Tween-80 88 % of control | [4] 88 % of control | [5] 96 % of control | [6] 100 % of control | [7] 104 % of control

CN=C(N)C(N)=NC
inactive: dose: 100.0 mg/kg/injection, schedule: Q04DX003 (ip), vehicle: saline with Tween-80 104 % of control | dose: 200.0 mg/kg/injection, schedule: Q04DX003 (ip), vehicle: saline with Tween-80 102 % of control | dose: 400.0 mg/kg/injection, schedule: Q04DX003 (ip), vehicle: saline with Tween-80 95 % of control

Cc1cc(OCCOC(=O)Nc2ccc(F)cc2)ccc1Cl
inactive: [8] 106 % of control | [9] 101 % of control | [10] 101 % of control

COc1cc2nn(-c3ccccc3N)nc2cc1OC
inactive: dose: 50.0 mg/kg/injection, schedule: Q01DX009 (ip), vehicle: saline with Tween-80 98 % of control | dose: 100.0 mg/kg/injection, schedule: Q01DX009 (ip), vehicle: saline with Tween-80 90 % of control | dose: 200.0 mg/kg/injection, schedule: Q01DX009 (ip), vehicle: saline with Tween-80 102 % of control

O=C(Nc1ccccc1F)NC(CO)(CO)CO
inactive: [8] 97 % of control | [9] 98 % of control | [10] 95 % of control

CCOC(=O)C(C)S(=O)(=O)/C(=C\N1CCCCC1)CC (stereo unspecified)
inactive: [5] 109 % of control | [11] 104 % of control | [6] 98 % of control | [12] 96 % of control | [7] 112 % of control | dose: 400.0 mg/kg/injection, schedule: Q04DX003 (ip), vehicle: other 102 % of control

CC1=C/C(=N/Nc2ccc([N+](=O)[O-])cc2[N+](=O)[O-])CCC1
inactive: dose: 50.0 mg/kg/injection, schedule: Q01DX009 (ip), vehicle: acetone 93 % of control | dose: 100.0 mg/kg/injection, schedule: Q01DX009 (ip), vehicle: acetone 88 % of control | dose: 100.0 mg/kg/injection, schedule: Q04DX003 (ip), vehicle: acetone 93 % of control | dose: 200.0 mg/kg/injection, schedule: Q04DX003 (ip), vehicle: acetone 86 % of control | dose: 400.0 mg/kg/injection, schedule: Q04DX003 (ip), vehicle: acetone 86 % of control

CCCCC1C(=O)N=C2C=CC=CN2C1=O (stereo unspecified)
inactive: dose: 25.0 mg/kg/injection, schedule: Q01DX009 (ip), vehicle: Klucel (hydroxypropylcellulose) (HPC) 102 % of control | [13] 100 % of control | [8] 110 % of control | [11] 104 % of control | [12] 102 % of control

N#Cc1c(/N=C/c2ccc3c(c2)CCC3)oc(-c2ccccc2)c1-c1ccccc1
inactive: [1] 103 % of control | [2] 97 % of control | [3] 94 % of control

Nc1cc(I)c2cccnc2c1O
inactive: dose: 6.25 mg/kg/injection, schedule: Q01DX009 (ip), vehicle: saline 101 % of control | dose: 10.0 mg/kg/injection, schedule: Q01DX015 (ip), vehicle: saline 95 % of control | dose: 12.5 mg/kg/injection, schedule: Q01DX009 (ip), vehicle: saline 96 % of control | dose: 20.0 mg/kg/injection, schedule: Q01DX015 (ip), vehicle: saline 87 % of control | dose: 25.0 mg/kg/injection, schedule: Q01DX009 (ip), vehicle: saline 102 % of control | dose: 50.0 mg/kg/injection, schedule: Q01DX009 (ip), vehicle: saline 98 % of control

O=S(=O)(NC1C2CC3C1N3N2)c1ccccc1 (stereo unspecified)
inactive: dose: 50.0 mg/kg/injection, schedule: Q04DX003 (ip), vehicle: saline 90 % of control | dose: 100.0 mg/kg/injection, schedule: Q04DX003 (ip), vehicle: saline 114 % of control | dose: 200.0 mg/kg/injection, schedule: Q04DX003 (ip), vehicle: saline 98 % of control

NC(=O)c1nc2ccccc2nc1C(N)=O
inactive: [8] 92 % of control | [1] 92 % of control | [9] 92 % of control | [2] 92 % of control | [10] 96 % of control | [3] 90 % of control

COc1ccc(OC)c(NC(=O)Oc2ccccc2F)c1
inactive: [13] 97 % of control | [8] 93 % of control | [1] 90 % of control | [2] 93 % of control | [3] 92 % of control

CC(=O)OC1CC2CCC3C4CC=C(C(C)=O)C4(C)CCC3C2(C)CC1OC(C)=O (stereo unspecified)
inactive: dose: 75.0 mg/kg/injection, schedule: Q04DX003 (ip), vehicle: other 97 % of control | dose: 150.0 mg/kg/injection, schedule: Q04DX003 (ip), vehicle: other 97 % of control | dose: 300.0 mg/kg/injection, schedule: Q04DX003 (ip), vehicle: other 94 % of control
